According to publication PMC10609143, “Inhibitory Mechanisms of Lekethromycin in Dog Liver Cytochrome P450 Enzymes Based on UPLC-MS/MS Cocktail Method” (Molecules, 2023):

How the values were obtained:
Type in all cases: in vitro ADME
CYP2B6 [1] = target: T1, CYP2B6 (Canis lupus familiaris, UniProt P24460); assay: Irreversible inhibition (IC50 shift) in dog liver microsomes
T1 construct: from tissue; host or cells: dog liver microsomes (DLM)
T1 sequence (P24460 1-494): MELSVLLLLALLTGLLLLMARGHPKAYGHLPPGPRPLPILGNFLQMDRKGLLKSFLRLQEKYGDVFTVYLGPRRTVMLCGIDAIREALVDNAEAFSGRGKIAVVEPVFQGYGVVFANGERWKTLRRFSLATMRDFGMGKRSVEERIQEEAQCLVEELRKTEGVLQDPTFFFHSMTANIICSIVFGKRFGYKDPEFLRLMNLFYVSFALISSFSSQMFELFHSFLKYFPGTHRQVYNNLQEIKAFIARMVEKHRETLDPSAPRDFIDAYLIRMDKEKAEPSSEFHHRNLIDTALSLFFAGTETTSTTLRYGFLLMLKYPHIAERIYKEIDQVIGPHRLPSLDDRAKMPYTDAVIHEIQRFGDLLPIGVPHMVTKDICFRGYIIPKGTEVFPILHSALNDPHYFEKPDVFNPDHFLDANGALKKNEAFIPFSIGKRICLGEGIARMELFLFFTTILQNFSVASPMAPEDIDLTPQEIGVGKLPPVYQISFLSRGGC
Method: To characterize the reversible or irreversible mechanism of CYP450 inhibition via LKMS, the shifted IC50 values were used to determine whether the inhibition of LKMS on CYP450 was time-dependent. […] The above mixture was then incubated for another 30 min in the presence of NADPH. The concentrations of LKMS were designated as 0.2, 2, 4, 6, 8, 10, 20, 40, and 80 μM, and the concentration of each probe substrate was based on each Km value. The concentrations of the probe substrates of CYP2A6, CYP2B6, and CYP2D6 were at single concentrations approximating their Km values.

CYP2B6 [2] = target: T1, CYP2B6; assay: CYP450 inhibition study of LKMS in dog liver microsomes, bupropion hydroxylation
Method: (§1) All experiments were performed in triplicate.
(§2) Inhibition assessment of CYP450 isoforms in DLM was performed with a fixed concentration of model probe substrates and a series of concentrations of LKMS ranging from 0 to 80 μM. The concentration of probe substrates was at a concentration of Km in this study. […] Mode inhibition was examined based on a primary Lineweaver–Burk plot and a secondary plot.
(§3) The IC50 values and enzyme kinetic parameters were determined by plotting relative activities over the logarithm of the concentration of LKMS using GraphPad (v.8.0.2, CA, USA). The mode of the inhibitor was analyzed using a Lineweaver–Burk plot and a secondary plot for inhibition constant (Ki and αKi) values. All experimental data are shown as mean ± standard deviation (SD).

CYP2C9 = assay: CYP450 inhibition study of LKMS in dog liver microsomes, tolbutamide 4-hydroxylation; conditions: probe at Km, 15 min, 0.2 mg/mL protein, n = 3
Method: as §1, §2, §3

[3] = CYP450 inhibition study of LKMS in dog liver microsomes, testosterone 6β-hydroxylation; conditions: probe at Km, 15 min, 0.2 mg/mL protein, n = 3
Method: as §1, §2, §3

Lekethromycin [LKMS]
IC50 fold-shift, Shift Ratio (−NADPH/+NADPH) (CYP2B6 [1]; CYP2B6, 30 min preincubation at 37 °C with and without NADPH): 0.88 | Time-dependent inhibition (CYP2B6 [1]; CYP2B6, judged from IC50 fold-shift <1.5): might not be a time-dependent inhibitor | Mode of inhibition (CYP2B6 [2]; CYP2B6, Lineweaver-Burk plots): mixed way | Ki (CYP2B6 [2]; CYP2B6, dog liver microsomes, Lineweaver-Burk and secondary (slope) plot, n = 2, read-out: Ki (inhibition constant)): 59.4 µM | αKi (alpha inhibition constant) (CYP2B6 [2]; CYP2B6, dog liver microsomes, secondary (intercept) plot, n = 2): 12.07 µM | IC50 (CYP2C9): > 200 µM | IC50 [3]: > 200 µM
